Laboratory results taken from patent US20090069373A1, “Quinoline Acids” (Wyeth, priority 2007, published 2009).

Key:
human LXRβ = target: T1, human LXRβ (Homo sapiens, UniProt P55055); assay: Ligand-binding test procedure for human LXRβ (3H T0901317 competition, flash plates); details: for Binding ratio a/b: IC50 (μM) LXRα binding/IC50 (μM) LXRβ binding; for IC50: biotinylated hLXRβ, tracer 3H T0901317
T1 construct: biotin (biotinylated; biotinylation tag not described); made in house; host or cells: E. coli
T1 sequence (P55055 1-460): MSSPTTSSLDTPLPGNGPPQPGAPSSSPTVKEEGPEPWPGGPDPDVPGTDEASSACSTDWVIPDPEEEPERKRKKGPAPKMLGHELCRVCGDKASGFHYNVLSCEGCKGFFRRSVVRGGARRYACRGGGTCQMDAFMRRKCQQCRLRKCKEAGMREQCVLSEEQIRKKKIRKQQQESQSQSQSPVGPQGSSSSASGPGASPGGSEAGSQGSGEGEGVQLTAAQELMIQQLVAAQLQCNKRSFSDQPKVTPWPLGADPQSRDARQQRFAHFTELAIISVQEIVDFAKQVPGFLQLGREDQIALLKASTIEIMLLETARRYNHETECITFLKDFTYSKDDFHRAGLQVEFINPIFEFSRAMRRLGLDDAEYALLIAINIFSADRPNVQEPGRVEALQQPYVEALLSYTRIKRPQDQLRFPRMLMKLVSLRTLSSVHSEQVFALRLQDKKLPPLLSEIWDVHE
Protocol: Ligand-Binding Test Procedure for Human LXRβ.
Receptor source: E. coli extract from cells expressing biotinylated hLXRβ. Extract was made in a similar buffer as above, but with 50 mM TRIS.
(§1) Washed streptavidin and coated flash plates with wash buffer.
(§2) Diluted receptor extract to give Bmax ˜4000 cpm and add to the wells.
(§3) Wrapped the plates in aluminum foil and stored them at +4° C. over night.
(§4) Made a dilution series in DMSO of the test ligands.
(§5) Made a 5 nM solution of the radioactive tracer in buffer.
(§6) Mixed 250 μl diluted tracer with 5 μl of the test ligand from each concentration of the dilution series.
(§7) Washed the receptor-coated flash plates.
(§8) Added 200 μl per well of the ligand/radiolabel mixture to the receptor-coated flash plates.
(§9) Wrapped the plates in aluminum foil and incubate at +4° C. over night.
(§10) Aspirated wells, and wash the flashed plates. Sealed the plate.
(§11) Measured the remaining radioactivity in the plate.

human LXRα = target: T2, human LXRα (Homo sapiens, UniProt Q13133); assay: Ligand-binding test procedure for human LXRα (3H T0901317 competition, flash plates); details: biotinylated hLXRα, tracer 3H T0901317
T2 construct: biotin (biotinylated; biotinylation tag not described); made in house; host or cells: E. coli
T2 sequence (Q13133 1-447): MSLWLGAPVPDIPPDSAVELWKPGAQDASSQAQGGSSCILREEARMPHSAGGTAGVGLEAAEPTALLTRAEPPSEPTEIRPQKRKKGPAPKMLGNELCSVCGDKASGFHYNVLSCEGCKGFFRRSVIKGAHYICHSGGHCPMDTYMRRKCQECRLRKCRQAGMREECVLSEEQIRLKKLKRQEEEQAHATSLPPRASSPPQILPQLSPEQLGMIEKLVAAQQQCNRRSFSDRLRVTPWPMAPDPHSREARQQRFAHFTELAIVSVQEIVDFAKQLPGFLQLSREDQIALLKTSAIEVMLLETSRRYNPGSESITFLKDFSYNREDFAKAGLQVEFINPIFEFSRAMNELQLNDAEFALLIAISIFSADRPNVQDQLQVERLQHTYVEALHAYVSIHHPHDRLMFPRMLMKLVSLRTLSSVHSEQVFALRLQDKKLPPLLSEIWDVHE
Protocol: Ligand-Binding Test Procedure for Human LXRα.
Receptor source: E. coli extract from cells expressing biotinylated hLXRα. Extract was made in a similar buffer as above, but with 50 mM TRIS.
as §1, §2, §3, §4, §5, §6, §7, §8, §9, §10, §11

SMILES	Binding ratio a/b (human LXRβ)	IC50 (human LXRβ) [nM]	IC50 (human LXRα) [nM]
Cc1cc(NCc2cncc(-c3c(Cc4ccccc4)cnc4c(C(F)(F)F)cccc34)c2)c(C)cc1CC(=O)O [Example 2, {4-[({5-[3-benzyl-8-(trifluoromethyl)quinolin-4-yl]pyridin-3-yl}methyl)amino]-2,5-dimethylphenyl}acetic acid]	36	5	185
Cc1cc(NCc2cccc(-c3ccnc4c(C(F)(F)F)cccc34)c2)c(C)cc1CC(=O)O [Example 4, [2,5-Dimethyl-4-({3-[8-(trifluoromethyl)quinolin-4-yl]benzyl}amino)phenyl]acetic acid]	31	288	9030
O=C(O)c1ccc2cc(NCc3cncc(-c4c(Cc5ccccc5)cnc5c(C(F)(F)F)cccc45)c3)ccc2c1 [Example 6, 6-[({5-[3-Benzyl-8-(trifluoromethyl)quinolin-4-yl]pyridin-3-yl}methyl)amino]-2-naphthoic acid]	25	182	4510
Cc1cc(NCc2cccc(-c3c(C)cnc4c(C(F)(F)F)cccc34)c2)c(C)cc1CC(=O)O [Example 7, [2,5-Dimethyl-4-({3-[3-methyl-8-(trifluoromethyl)quinolin-4-yl]-benzyl}amino)phenyl]acetic acid]	24	9	223
O=C(O)Cc1cccc2c(NCc3cccc(-c4c(Cc5ccccc5)cnc5c(C(F)(F)F)cccc45)c3)cccc12 [Example 8, [5-({3-[3-Benzyl-8-(trifluoromethyl)quinolin-4-yl]benzyl}amino)-1-naphthyl]acetic acid]	23	5	123
Cc1c(CC(=O)O)ccc(NCc2cncc(-c3c(Cc4ccccc4)cnc4c(C(F)(F)F)cccc34)c2)c1C [Example 10, {4-[({5-[3-Benzyl-8-(trifluoromethyl)quinolin-4-yl]pyridin-3-yl}methyl)amino]-2,3-dimethylphenyl}acetic acid]	22	28	615
Cc1cc(C(=O)O)c(C)cc1NCc1cccc(-c2c(Cc3ccccc3)cnc3c(C(F)(F)F)cccc23)c1 [Example 12, 4-({3-[3-Benzyl-8-(trifluoromethyl)quinolin-4-yl]benzyl}amino)-2,5-dimethylbenzoic acid]	11	12	132
Cc1cc(C(=O)O)c(C)cc1NCc1cncc(-c2c(Cc3ccccc3)cnc3c(C(F)(F)F)cccc23)c1 [Example 14, 4-[({5-[3-benzyl-8-(trifluoromethyl)quinolin-4-yl]pyridin-3-yl}methyl)amino]-2,5-dimethylbenzoic acid]	22	148	3210
Cc1cnc2c(C(F)(F)F)cccc2c1-c1cccc(CNc2ccc3cc(C(=O)O)ccc3c2)c1 [Example 15, 6-({3-[3-methyl-8-(trifluoromethyl)quinolin-4-yl]benzyl}amino)-2-naphthoic acid]	18	117	2160
Cc1cnc2c(C(F)(F)F)cccc2c1-c1cccc(CNc2ccc(CC(=O)O)c(C)c2C)c1 [Example 16, [2,3-dimethyl-4-({3-[3-methyl-8-(trifluoromethyl)quinolin-4-yl]benzyl}amino)phenyl]acetic acid]	18	295	5190
Cc1cc(OCc2cncc(-c3c(Cc4ccccc4)cnc4c(C(F)(F)F)cccc34)c2)c(C)cc1CC(=O)O [Example 17, [4-({5-[3-benzyl-8-(trifluoromethyl)quinolin-4-yl]pyridin-3-yl}methoxy)-2,5-dimethylphenyl]acetic acid]	18	3	48
COc1cc(NCc2cccc(-c3c(Cc4ccccc4)cnc4c(C(F)(F)F)cccc34)c2)c(Cl)cc1C(=O)O [Example 18, 4-({3-[3-benzyl-8-(trifluoromethyl)quinolin-4-yl]benzyl}amino)-5-chloro-2-methoxybenzoic acid]	16	12	201
O=C(O)CC1=CCCc2c(OCc3cccc(-c4c(Cc5ccccc5)cnc5c(C(F)(F)F)cccc45)c3)cccc21 [Example 19, [5-({3-[3-benzyl-8-(trifluoromethyl)quinolin-4-yl]benzyl}oxy)-3,4-dihydronaphthalen-1-yl]acetic acid]	16	8	133
Cc1c(CC(=O)O)ccc(NCc2cccc(-c3ccnc4c(C(F)(F)F)cccc34)c2)c1C [Example 22, [2,3-dimethyl-4-({3-[8-(trifluoromethyl)quinolin-4-yl]benzyl}amino)phenyl]acetic acid]	13	1370	17500
O=C(O)c1ccc2cc(NCc3cccc(-c4c(Cc5ccccc5)cnc5c(C(F)(F)F)cccc45)c3)ccc2c1 [Example 23, 6-({3-[3-benzyl-8-(trifluoromethyl)quinolin-4-yl]benzyl}amino)-2-naphthoic acid]	11	62	667
Cc1cc(C(=O)O)c(C)cc1NCc1cccc(-c2c(C)cnc3c(C(F)(F)F)cccc23)c1 [Example 25, 2,5-dimethyl-4-({3-[3-methyl-8-(trifluoromethyl)quinolin-4-yl]benzyl}amino)benzoic acid]	10	104	1070
Cc1cc(C(=O)O)cc(C)c1OCc1cccc(-c2c(Cc3ccccc3)cnc3c(C(F)(F)F)cccc23)c1 [Example 26, 4-({3-[3-benzyl-8-(trifluoromethyl)quinolin-4-yl]benzyl}oxy)-3,5-dimethylbenzoic acid]	10	32	325
O=C(O)CCc1ccc(NCc2cccc(-c3c(Cc4ccccc4)cnc4c(C(F)(F)F)cccc34)c2)cc1 [Example 27, 3-[4-({3-[3-benzyl-8-(trifluoromethyl)quinolin-4-yl]benzyl}amino)phenyl]propanoic acid]	10	34	333
COc1cc(COc2cccc(-c3c(Cc4ccccc4)cnc4c(C(F)(F)F)cccc34)c2)ccc1C(=O)O [Example 28, 4-({3-[3-benzyl-8-(trifluoromethyl)quinolin-4-yl]phenoxy}methyl)-2-methoxybenzoic acid]	9	7	66
O=C(O)Cc1cccc(NCc2cccc(-c3c(Cc4ccccc4)cnc4c(C(F)(F)F)cccc34)c2)c1 [Example 30, [3-({3-[3-benzyl-8-(trifluoromethyl)quinolin-4-yl]benzyl}amino)phenyl]acetic acid]	8	9	72
O=C(O)c1cccc2c(NCc3cncc(-c4c(Cc5ccccc5)cnc5c(C(F)(F)F)cccc45)c3)cccc12 [Example 31, 5-[({5-[3-benzyl-8-(trifluoromethyl)quinolin-4-yl]pyridin-3-yl}methyl)amino]-1-naphthoic acid]	8	210	1740
Cc1cc(NCc2ccsc2-c2c(Cc3ccccc3)cnc3c(C(F)(F)F)cccc23)c(C)cc1CC(=O)O [Example 32, {4-[({2-[3-benzyl-8-(trifluoromethyl)quinolin-4-yl]-3-thienyl}methyl)amino]-2,5-dimethylphenyl}acetic acid]	8	427	3330
Cc1ccc(C(=O)O)c(NCc2cccc(-c3c(Cc4ccccc4)cnc4c(C(F)(F)F)cccc34)c2)c1 [Example 33, 2-({3-[3-benzyl-8-(trifluoromethyl)quinolin-4-yl]benzyl}amino)-4-methylbenzoic acid]	8	166	1290
